Data from BindingDB's records for doi:10.1007/s00213-002-1073-7 (WestfÄLische Wilhelms-Universit&Auml, 2002).
“And” between values parts separate entries of the source, which are not always exact repeats. Equal entries are not always repeated.

Legend:
[1] = target: T1, Alpha-2C adrenergic receptor (Homo sapiens, UniProt P18825)
T1 sequence (P18825 whole entry): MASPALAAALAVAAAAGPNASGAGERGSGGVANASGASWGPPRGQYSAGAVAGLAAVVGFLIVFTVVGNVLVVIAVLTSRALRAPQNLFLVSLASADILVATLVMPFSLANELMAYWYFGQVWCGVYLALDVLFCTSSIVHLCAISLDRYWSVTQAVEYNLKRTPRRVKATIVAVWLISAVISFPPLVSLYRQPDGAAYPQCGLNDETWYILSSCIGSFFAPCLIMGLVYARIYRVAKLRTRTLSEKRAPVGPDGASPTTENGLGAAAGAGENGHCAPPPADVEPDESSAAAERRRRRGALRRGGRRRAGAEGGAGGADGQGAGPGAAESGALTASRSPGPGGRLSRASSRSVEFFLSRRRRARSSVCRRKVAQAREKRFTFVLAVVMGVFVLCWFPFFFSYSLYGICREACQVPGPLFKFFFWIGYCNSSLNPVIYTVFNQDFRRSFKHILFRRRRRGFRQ

D(4) dopamine receptor = target: T2, D(4) dopamine receptor (Rattus norvegicus, UniProt P30729)
T2 sequence (P30729 whole entry): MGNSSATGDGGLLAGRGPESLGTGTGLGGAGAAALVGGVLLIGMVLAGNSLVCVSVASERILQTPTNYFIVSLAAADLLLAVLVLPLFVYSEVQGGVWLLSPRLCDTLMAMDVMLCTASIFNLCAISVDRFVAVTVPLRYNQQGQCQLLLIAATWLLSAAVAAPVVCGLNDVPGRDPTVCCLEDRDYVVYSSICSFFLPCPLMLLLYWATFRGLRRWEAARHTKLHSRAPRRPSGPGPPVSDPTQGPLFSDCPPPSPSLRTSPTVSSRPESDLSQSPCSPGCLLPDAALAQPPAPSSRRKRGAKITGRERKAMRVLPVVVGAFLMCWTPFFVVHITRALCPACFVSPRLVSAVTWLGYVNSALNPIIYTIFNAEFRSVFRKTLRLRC

[2] = target: Sodium-dependent dopamine transporter (Bos taurus, UniProt P27922)
[3] = target: Kappa-type opioid receptor (Homo sapiens, UniProt P41145)
Vasopressin V1b receptor = target: T3, Vasopressin V1b receptor (Homo sapiens, UniProt P47901)
T3 sequence (P47901 whole entry): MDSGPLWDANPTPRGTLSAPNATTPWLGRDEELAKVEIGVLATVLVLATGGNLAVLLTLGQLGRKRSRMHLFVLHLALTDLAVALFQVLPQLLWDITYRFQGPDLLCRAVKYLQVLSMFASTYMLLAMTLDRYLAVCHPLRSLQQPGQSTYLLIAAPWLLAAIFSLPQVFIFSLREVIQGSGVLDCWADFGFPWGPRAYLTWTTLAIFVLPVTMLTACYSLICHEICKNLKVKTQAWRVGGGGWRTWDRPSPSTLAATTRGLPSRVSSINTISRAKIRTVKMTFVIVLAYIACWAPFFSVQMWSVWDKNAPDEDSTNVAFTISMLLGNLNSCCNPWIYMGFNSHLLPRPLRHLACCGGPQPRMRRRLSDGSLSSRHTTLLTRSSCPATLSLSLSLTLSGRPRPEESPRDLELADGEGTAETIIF

D(3) dopamine receptor = D(3) dopamine receptor (Rattus norvegicus, UniProt P19020)
[4] = target: T4, Muscarinic acetylcholine receptor M4 (Homo sapiens, UniProt P08173)
T4 sequence (P08173 whole entry): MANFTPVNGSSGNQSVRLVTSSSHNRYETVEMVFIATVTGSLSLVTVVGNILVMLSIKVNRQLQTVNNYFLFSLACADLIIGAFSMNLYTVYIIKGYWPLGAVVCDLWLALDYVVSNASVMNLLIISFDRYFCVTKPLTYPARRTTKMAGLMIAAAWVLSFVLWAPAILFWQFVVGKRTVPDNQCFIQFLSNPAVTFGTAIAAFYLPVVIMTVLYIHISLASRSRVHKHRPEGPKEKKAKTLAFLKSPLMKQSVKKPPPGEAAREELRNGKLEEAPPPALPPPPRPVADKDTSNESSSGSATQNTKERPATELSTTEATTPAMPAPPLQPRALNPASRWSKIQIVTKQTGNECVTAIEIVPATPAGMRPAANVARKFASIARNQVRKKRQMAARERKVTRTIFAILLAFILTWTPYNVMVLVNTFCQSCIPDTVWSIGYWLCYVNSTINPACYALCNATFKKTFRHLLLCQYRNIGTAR

[5] = target: 5-hydroxytryptamine receptor 5A (Homo sapiens, UniProt P47898)
[6] = target: T5, Muscarinic acetylcholine receptor M2 (Homo sapiens, UniProt P08172)
T5 sequence (P08172 whole entry): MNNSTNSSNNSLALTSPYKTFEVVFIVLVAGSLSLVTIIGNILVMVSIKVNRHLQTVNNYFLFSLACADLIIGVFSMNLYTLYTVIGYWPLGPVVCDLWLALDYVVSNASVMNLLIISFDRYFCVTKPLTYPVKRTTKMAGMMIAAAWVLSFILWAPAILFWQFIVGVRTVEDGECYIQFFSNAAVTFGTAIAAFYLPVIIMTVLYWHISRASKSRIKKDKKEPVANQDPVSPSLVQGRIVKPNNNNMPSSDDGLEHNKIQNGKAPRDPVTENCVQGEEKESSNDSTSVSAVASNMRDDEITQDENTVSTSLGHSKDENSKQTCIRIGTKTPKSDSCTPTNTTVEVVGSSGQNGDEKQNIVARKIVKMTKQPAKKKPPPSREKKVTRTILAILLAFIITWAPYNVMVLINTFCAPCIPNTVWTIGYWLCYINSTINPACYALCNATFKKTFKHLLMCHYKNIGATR

Sequence of D(3) dopamine receptor (P19020 whole entry): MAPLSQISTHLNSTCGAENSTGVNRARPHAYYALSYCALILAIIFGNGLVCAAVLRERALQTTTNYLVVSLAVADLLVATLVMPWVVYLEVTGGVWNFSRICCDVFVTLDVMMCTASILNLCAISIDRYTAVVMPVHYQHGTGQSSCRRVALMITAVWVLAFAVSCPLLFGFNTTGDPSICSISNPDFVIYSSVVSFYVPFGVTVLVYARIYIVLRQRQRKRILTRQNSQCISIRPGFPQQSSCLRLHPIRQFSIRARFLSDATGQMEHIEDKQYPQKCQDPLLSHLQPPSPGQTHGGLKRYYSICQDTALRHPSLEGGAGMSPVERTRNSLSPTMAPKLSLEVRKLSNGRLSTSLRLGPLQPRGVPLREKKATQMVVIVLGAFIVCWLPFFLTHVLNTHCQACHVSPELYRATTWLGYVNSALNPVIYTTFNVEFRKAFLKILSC
Sequence of 5-hydroxytryptamine receptor 5A (P47898 whole entry): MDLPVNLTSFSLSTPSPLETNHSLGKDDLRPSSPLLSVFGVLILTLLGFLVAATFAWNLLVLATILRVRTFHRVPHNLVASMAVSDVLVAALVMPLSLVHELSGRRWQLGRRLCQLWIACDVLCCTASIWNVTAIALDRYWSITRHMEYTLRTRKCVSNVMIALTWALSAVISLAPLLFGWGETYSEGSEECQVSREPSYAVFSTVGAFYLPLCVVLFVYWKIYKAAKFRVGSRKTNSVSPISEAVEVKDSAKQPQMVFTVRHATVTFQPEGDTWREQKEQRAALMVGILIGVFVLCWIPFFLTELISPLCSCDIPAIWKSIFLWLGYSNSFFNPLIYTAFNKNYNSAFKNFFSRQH
Sequence of Sodium-dependent dopamine transporter (P27922 whole entry): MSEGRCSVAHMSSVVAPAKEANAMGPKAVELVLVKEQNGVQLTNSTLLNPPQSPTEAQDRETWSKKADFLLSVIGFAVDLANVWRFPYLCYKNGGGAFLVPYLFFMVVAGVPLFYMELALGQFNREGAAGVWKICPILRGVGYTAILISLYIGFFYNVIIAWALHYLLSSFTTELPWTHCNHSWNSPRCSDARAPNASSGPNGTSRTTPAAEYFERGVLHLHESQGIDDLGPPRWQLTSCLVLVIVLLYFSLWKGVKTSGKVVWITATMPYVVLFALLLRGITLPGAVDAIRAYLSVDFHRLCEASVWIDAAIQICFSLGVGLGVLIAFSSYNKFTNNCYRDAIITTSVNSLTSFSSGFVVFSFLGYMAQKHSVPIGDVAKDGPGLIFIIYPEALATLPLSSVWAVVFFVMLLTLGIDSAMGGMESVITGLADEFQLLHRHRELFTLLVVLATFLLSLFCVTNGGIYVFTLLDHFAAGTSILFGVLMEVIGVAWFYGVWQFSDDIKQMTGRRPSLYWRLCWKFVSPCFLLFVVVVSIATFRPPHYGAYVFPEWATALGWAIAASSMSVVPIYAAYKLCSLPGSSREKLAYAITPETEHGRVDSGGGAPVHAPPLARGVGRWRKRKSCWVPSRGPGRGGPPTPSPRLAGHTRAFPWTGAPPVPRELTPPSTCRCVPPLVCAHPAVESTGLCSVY
Sequence of Kappa-type opioid receptor (P41145 whole entry): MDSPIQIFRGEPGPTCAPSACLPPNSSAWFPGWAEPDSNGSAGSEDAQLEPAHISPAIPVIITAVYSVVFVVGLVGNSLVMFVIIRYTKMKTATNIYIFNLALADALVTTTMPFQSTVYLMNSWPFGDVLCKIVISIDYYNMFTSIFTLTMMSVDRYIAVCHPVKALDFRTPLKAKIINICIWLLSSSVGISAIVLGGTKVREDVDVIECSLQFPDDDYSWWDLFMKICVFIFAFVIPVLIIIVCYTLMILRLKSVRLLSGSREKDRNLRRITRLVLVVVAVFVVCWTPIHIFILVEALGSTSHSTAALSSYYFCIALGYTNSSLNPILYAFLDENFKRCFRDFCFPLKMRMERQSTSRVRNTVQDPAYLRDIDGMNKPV

Structure (SMILES) | Ki [1] | Ki (D(4) dopamine receptor) | Ki [2] | Ki [3] | Ki (Vasopressin V1b receptor) | Ki (D(3) dopamine receptor) | Ki [4] | Ki [5] | Ki [6]
O=c1cc(O)cc2oc(-c3ccc(O)c(-c4c(O)cc(O)c5c(=O)cc(-c6ccc(O)cc6)oc45)c3)cc(O)c1-2 | > 10 µM | > 10 µM | 0.877 µM | > 10 µM | > 10 µM | 1.24 µM | > 10 µM | > 10 µM | > 10 µM
CC(C)=CCC[C@]1(C)[C@@H](CC=C(C)C)C[C@]2(CC=C(C)C)C(=O)C(CC=C(C)C)C(=O)[C@]1(C(=O)C(C)C)C2=O (some centres undefined) | > 10 µM | > 10 µM | > 10 µM | > 10 µM | > 10 µM | > 10 µM | > 10 µM | > 10 µM | > 10 µM
C[C@@H]1O[C@@H](Oc2c(-c3ccc(O)c(O)c3)oc3cc(O)cc(=O)c-3c2O)[C@H](O)[C@H](O)[C@H]1O | > 10 µM | > 10 µM | > 10 µM | > 10 µM | > 10 µM | > 10 µM | > 10 µM | > 10 µM | > 10 µM
O=c1c(O)c(-c2ccc(O)c(O)c2)oc2cc(O)cc(O)c12 [2-(3,4-dihydroxyphenyl)-3,5,7-trihydroxy-chromone;hydrate] | > 10 µM | 7.85 µM | > 10 µM | > 10 µM | > 10 µM | > 10 µM | > 10 µM | > 10 µM | > 10 µM

Now from value to compound:

Ki [1] | Ki (D(4) dopamine receptor) | Ki [2] | Ki [3] | Ki (Vasopressin V1b receptor) | Ki (D(3) dopamine receptor) | Ki [4] | Ki [5] | Ki [6] | Structure (SMILES)
9.64 µM | > 10 µM | > 10 µM | > 10 µM | > 10 µM | > 10 µM | > 10 µM | > 10 µM | > 10 µM | C[C@@H]1O[C@@H](OC[C@H]2O[C@@H](Oc3c(-c4ccc(O)c(O)c4)oc4cc(O)cc(O)c4c3=O)[C@H](O)[C@@H](O)[C@@H]2O)[C@H](O)[C@H](O)[C@H]1O [3-Rhamnoglucosylquercetin]
> 10 µM and 4.06 µM | > 10 µM | > 10 µM | > 10 µM | > 10 µM | > 10 µM | > 10 µM | > 10 µM | > 10 µM | O=c1cc(O)cc2oc(-c3ccc(O)c(O)c3)c(OC3OC(CO)C(O)C(O)C3O)c(O)c1-2 (centres undefined) [NSC_5318390]
